Measured values as given in US11753407B2, “Compounds for treating spinal muscular atrophy” (PTC Therapeutics, Inc., priority 2012, dated 2023).

Columns and labels:
[1] = test system: SMN2 minigene mRNA (SMN2-A minigene) in HEK293H cells; assay: SMN2 minigene mRNA splicing RT-qPCR assay in cultured cells; type: cell-based, human; details: Homo sapiens, HEK293-H; concentration increasing full length SMN2 mRNA 1.5-fold relative to vehicle-treated cells; HEK293H cells with SMN2-A minigene, 24 hours, 7-point concentration data; read-out: EC1.5x for production of full length SMN2 mRNA
Summary of the method: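 HEK293H cells stably carrying SMN2-A minigene treated with compounds (7-point, 3.16-fold dilutions, duplicates) for 24 h at 37 °C. Full-length exon 7-containing minigene mRNA measured by multiplex RT-qPCR with GAPDH, normalized and expressed relative to vehicle (modified ΔΔCt); EC1.5× is concentration giving 1.5-fold increase.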

[2] = test system: Smn protein in SMA patient fibroblast cells (GM03813); assay: Smn protein assay in cultured cells (SMN HTRF); type: cell-based, human; details: SMA patient fibroblast cells, 48 hours; for EC1.5x for Smn protein expression: 7-point concentration curve, SMN HTRF, concentration producing 1.5 times Smn protein vs DMSO vehicle control; for maximum fold (Fold) increase of Smn protein: 7-point concentration data, fold relative to vehicle control
Summary of the method: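 SMA patient fibroblasts (5,000/well, DMEM-10% FBS) treated 48 h at 37° C with 7-point, 3.16-fold compound series in triplicate; lysates read by SMN HTRF (665/620 nm ratio). Fold Smn increase over DMSO vehicle derived; EC1.5× is concentration giving 1.5-fold Smn, with maximum fold also reported.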

Row | melting point [°C] | Compound | EC (1.5-fold increase) [1] [µM] | EC1.5x for Smn protein expression [2] | maximum fold (Fold) increase of Smn protein [2]
1 | 170 to 174 | COc1ccc(-c2cc(=O)n3cc(C4CCN(C)CC4)cc(C)c3n2)cc1OC [Compound 252, 2-(3,4-dimethoxyphenyl)-9-methyl-7-(1-methylpiperidin-4-yl)-4H-pyrido[1,2-a]pyrimidin-4-one] | 0.1 to 0.3 | *** (an EC1.5× between >0.3 μM and ≤1 μM is indicated by three stars (***)) | **** (a fold increase between >1.5 and ≤1.65 is indicated by four stars (****))
2 | 205 to 207 | Cc1nc2ccc(-c3cc(=O)n4cc(N5CCCNCC5)ccc4n3)cc2s1 [Compound 253, 7-(1,4-diazepan-1-yl)-2-(2-methyl-1,3-benzothiazol-6-yl)-4H-pyrido[1,2-a]pyrimidin-4-one] | 1 to 3 |  | * (A maximum fold increase of ≤1.2 is indicated by one star (*))

Continued, compound first:

Row | Compound | melting point [°C] | EC (1.5-fold increase) [1] [µM] | EC1.5x for Smn protein expression [2] | maximum fold (Fold) increase of Smn protein [2]
3 | Cc1nc2ccc(-c3cc(=O)n4cc(N5CCN(C)[C@H](C)C5)ccc4n3)cc2o1 [Compound 244, 7-[(3R)-3,4-dimethylpiperazin-1-yl]-2-(2-methyl-1,3-benzoxazol-6-yl)-4H-pyrido[1,2-a]pyrimidin-4-one] | 181 to 187 | < 0.1 | **** (an EC1.5x≤0.3 μM is indicated by four stars (****)) | **** (a fold increase between >1.5 and ≤1.65 is indicated by four stars (****))
4 | COc1ccc(-c2cc(=O)n3cc(N4C[C@H]5CCN(C)[C@H]5C4)ccc3n2)cc1F [Compound 246, 2-(3-fluoro-4-methoxyphenyl)-7-[(3aR,6aR)-1-methylhexahydropyrrolo[3,4-b]pyrrol-5(1H)-yl]-4H-pyrido[1,2-a]pyrimidin-4-one] | 205 to 209 | 1 to 3 |  | * (A maximum fold increase of ≤1.2 is indicated by one star (*))
5 | COc1ccc(-c2cc(=O)n3cc(C4=CCNCC4)cc(C)c3n2)cc1OC [Compound 247, 2-(3,4-dimethoxyphenyl)-9-methyl-7-(1,2,3,6-tetrahydropyridin-4-yl)-4H-pyrido[1,2-a]pyrimidin-4-one] | 186 to 191 | < 0.1 | **** (an EC1.5x≤0.3 μM is indicated by four stars (****)) | ***** (a fold increase >1.65 is indicated by five stars (*****))
6 | COc1ccc(-c2cc(=O)n3cc(C4=CCN(CCO)CC4)ccc3n2)cc1OC [Compound 248, 2-(3,4-dimethoxyphenyl)-7-[1-(2-hydroxyethyl)-1,2,3,6-tetrahydropyridin-4-yl]-4H-pyrido[1,2-a]pyrimidin-4-one] | 134 to 137 | 0.3 to 1 | *** (an EC1.5× between >0.3 μM and ≤1 μM is indicated by three stars (***)) | **** (a fold increase between >1.5 and ≤1.65 is indicated by four stars (****))
7 | COc1ccc(-c2cc(=O)n3cc(C4CCNCC4)cc(C)c3n2)cc1OC [Compound 250, 2-(3,4-dimethoxyphenyl)-9-methyl-7-(piperidin-4-yl)-4H-pyrido[1,2-a]pyrimidin-4-one] | 176 to 181 | < 0.1 | **** (an EC1.5x≤0.3 μM is indicated by four stars (****)) | ***** (a fold increase >1.65 is indicated by five stars (*****))
8 | COc1ccc(-c2cc(=O)n3cc(C4=CCN(C)CC4)cc(C)c3n2)cc1OC [Compound 251, 2-(3,4-dimethoxyphenyl)-9-methyl-7-(1-methyl-1,2,3,6-tetrahydropyridin-4-yl)-4H-pyrido[1,2-a]pyrimidin-4-one] | 187 to 196 | < 0.1 | **** (an EC1.5x≤0.3 μM is indicated by four stars (****)) | ***** (a fold increase >1.65 is indicated by five stars (*****))
